Patent US20250235456A1, “METHODS OF USE FOR AZA-QUINAZOLINE COMPOUNDS” (Iambic Therapeutics, Inc., priority 2024, published 2025)

Experiments:
Assay type in all cases: biochemical
[1] = molecular target: CDK2/Cyclin E1 full length (Homo sapiens (Human), UniProt P24941); assay: CDK2/Cyclin E1 Full length ADP-Glo Kinase Assay; details: read-out: CDK2/CyclinE1 IC50
Method: CDK2/Cyclin E1 Full length ADP-Glo Kinase Assay
The purpose of CDK2/Cyclin El assay is to evaluate the inhibition (% inhibition and IC50 values) of small molecule inhibitors by using a Luminescent based ADP-Glo assay. CDK2/Cyclin El full length catalyzes the production of ADP from ATP. ADP-Glo assay monitors ADP producing biochemical reactions. ADP-Glo is performed in 2 steps upon completion of kinase reaction: a combined termination of kinase reaction and depletion of remaining ATP in the first step, and conversion of generated ADP to ATP and the newly produced ATP to light output using luciferase/luciferin reaction in the second step. The luminescent signal generated is proportional to the ADP concentration produced and is correlated with the kinase activity. CDK2/Cyclin E1 was purchased from Eurofins (Cat 14-475M). […] The assay was initiated with the addition of ATP-containing substrate solution, following a 30-minute pre-incubation of enzyme and inhibitor at room temperature in the reaction mixture. The reaction was stopped after 90 minutes at room temperature by the addition of 10 μL of ADP-GLO Reagent. After a 90 minute incubation, 20 uL of Kinase Detection Reagent was added. Samples were incubated for 40 minutes, after which plate well luminescence was measured on a Envision microplate reader. The IC50 determinations were made from a plot of the fractional velocity as a function of inhibitor concentration fit to the 4 parameters IC50 equation.

[2] = molecular target: CDK1/Cyclin B1 (Homo sapiens (Human), UniProt P06493); assay: CDK1/Cyclin B1 ADP-Glo Kinase Assay
Outline: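 Purchased CDK1/Cyclin B1 was pre-incubated 30 min with inhibitor at room temperature, then reacted 90 min at room temperature after adding ATP-containing substrate. ADP formed was read by two-step ADP-Glo luminescence. IC50 came from a 4-parameter fit of fractional velocity versus inhibitor concentration.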

[3] = molecular target: CDK4/Cyclin D1 (Homo sapiens (Human), UniProt P11802); assay: CDK4/Cyclin D1 CHEF Assay; details: AQT; read-out: CDK4/CyclinD1 AQT IC50
Outline: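 Peptide substrate AQT0258 carries a Sox fluorophore whose Mg(II)-dependent fluorescence (ex 360/em 485 nm) rises on phosphorylation. Enzyme and inhibitor pre-incubated 30 min at 22 °C, substrate added, reaction run 3 h at 22 °C. IC50 from 4-parameter fit of fractional velocity vs inhibitor concentration.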

[4] = molecular target: CDK6/Cyclin D3 (Homo sapiens (Human), UniProt Q00534); assay: CDK6/Cyclin D3 ADP-Glo Kinase Assay; details: read-out: CDK6/CyclinD3 IC50
Outline: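 Commercial CDK6/Cyclin D3 pre-incubated with inhibitor 30 min at room temperature, then reaction started with ATP/substrate and run 90 min at room temperature. ADP formed measured by ADP-Glo luminescence; IC50 from fractional velocity vs inhibitor concentration fit to a 4-parameter equation.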

Chain of CDK1/Cyclin B1 (P06493 whole entry): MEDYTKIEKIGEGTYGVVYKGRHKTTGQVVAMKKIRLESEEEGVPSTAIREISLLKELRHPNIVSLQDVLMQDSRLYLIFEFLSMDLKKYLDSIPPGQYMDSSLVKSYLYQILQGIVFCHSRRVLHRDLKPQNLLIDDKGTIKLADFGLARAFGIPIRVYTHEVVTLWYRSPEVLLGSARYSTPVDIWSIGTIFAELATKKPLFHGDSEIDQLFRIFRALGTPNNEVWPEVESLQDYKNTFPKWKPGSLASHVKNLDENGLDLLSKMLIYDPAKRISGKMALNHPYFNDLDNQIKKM
Chain of CDK1/Cyclin B1 (P14635 whole entry partner): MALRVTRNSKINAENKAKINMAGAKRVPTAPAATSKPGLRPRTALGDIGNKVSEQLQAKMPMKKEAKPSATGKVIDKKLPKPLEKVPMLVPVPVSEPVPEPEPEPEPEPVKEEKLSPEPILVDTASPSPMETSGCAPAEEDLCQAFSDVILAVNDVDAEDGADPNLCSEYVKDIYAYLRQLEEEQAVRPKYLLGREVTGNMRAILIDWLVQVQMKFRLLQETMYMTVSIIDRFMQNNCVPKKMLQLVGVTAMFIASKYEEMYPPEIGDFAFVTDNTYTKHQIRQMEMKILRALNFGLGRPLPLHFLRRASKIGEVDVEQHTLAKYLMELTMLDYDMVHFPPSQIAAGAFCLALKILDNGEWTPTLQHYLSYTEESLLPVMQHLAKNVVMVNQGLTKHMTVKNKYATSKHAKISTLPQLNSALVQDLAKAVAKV
Chain of CDK6/Cyclin D3 (Q00534 whole entry): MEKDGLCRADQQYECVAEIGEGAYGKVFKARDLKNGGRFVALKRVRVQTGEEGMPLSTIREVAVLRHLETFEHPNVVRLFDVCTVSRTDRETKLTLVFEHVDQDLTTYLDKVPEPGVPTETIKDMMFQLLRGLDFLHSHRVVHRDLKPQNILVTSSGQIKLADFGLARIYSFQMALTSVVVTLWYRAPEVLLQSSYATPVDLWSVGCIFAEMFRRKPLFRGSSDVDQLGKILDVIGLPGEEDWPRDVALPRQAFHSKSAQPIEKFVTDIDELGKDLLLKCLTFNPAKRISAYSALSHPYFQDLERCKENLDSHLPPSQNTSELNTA
Chain of CDK6/Cyclin D3 (P30281 whole entry partner): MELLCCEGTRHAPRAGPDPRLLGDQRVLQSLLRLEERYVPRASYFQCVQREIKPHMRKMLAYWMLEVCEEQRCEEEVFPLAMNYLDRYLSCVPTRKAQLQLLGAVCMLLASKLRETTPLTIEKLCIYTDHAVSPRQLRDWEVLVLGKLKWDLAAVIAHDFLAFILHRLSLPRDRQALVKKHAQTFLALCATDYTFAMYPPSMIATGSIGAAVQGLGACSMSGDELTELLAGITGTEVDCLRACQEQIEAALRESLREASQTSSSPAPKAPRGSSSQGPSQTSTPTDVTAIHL
Chain of CDK4/Cyclin D1 (P11802 whole entry, species assumed): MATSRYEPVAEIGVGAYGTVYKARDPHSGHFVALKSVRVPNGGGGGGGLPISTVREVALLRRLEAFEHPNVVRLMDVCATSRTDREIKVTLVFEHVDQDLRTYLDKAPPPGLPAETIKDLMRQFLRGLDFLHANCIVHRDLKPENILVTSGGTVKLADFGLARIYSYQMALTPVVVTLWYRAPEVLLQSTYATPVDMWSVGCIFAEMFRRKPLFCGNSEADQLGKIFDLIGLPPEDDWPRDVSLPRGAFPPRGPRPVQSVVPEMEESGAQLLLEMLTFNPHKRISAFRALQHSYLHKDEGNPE
Chain of CDK4/Cyclin D1 (P24385 whole entry partner, species assumed): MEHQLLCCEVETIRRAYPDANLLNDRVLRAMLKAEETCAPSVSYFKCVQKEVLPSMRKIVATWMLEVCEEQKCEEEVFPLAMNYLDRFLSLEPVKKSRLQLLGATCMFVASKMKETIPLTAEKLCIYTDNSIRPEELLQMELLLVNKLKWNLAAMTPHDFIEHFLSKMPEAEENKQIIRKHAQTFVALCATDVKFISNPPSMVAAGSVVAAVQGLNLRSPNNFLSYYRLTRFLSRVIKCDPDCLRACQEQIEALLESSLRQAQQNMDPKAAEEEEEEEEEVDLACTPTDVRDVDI

Question: How did the IC50 [1] turn out when Cc1cc2cnc(Nc3cnn(C4CC5(C4)CN(C)C5)c3)nc2c(N2CC3(C2)CN(S(C)(=O)=O)C3)n1 [Compound 26, 6-methyl-N-(1-(2-methyl-2-azaspiro[3.3]heptan-6-yl)-1H-pyrazol-4-yl)-8-(6-(methylsulfonyl)-2,6-diazaspiro[3.3]heptan-2-yl) pyrido[3,4-d]pyrimidin-2-amine] was run?
Answer: 200 to 500 nM

Question: What about the IC50 [2] of the same molecule?
Answer: > 2000 nM

Question: What about the IC50 [3] of the same molecule?
Answer: 200 to 500 nM

Question: What does the source list for Cc1cc2cnc(Nc3ccc4c(c3)CN(C3CN(S(C)(=O)=O)C3)C4)nc2c(N2CC3(CN(C)C3)C2)n1 [Compound 29, 6-methyl-8-(6-methyl-2,6-diazaspiro[3.3]heptan-2-yl)-N-(2-(1-(methylsulfonyl)azetidin-3-yl)isoindolin-5-yl)pyrido[3,4-d]pyrimidin-2-amine]?
Answer: IC50 [1]: 200 to 500 nM; IC50 [2]: > 2000 nM; IC50 [3]: < 200 nM

Question: Which IC50 [1] does the source give for Cc1cc2cnc(Nc3cnn(C4CC5(C4)CN(C)C5)c3)nc2c(N2CCC3(C2)CC3(F)F)n1 (stereo not drawn) [Compound 33, 8-(1,1-difluoro-5-azaspiro[2.4]heptan-5-yl)-6-methyl-N-(1-(2-methyl-2-azaspiro[3.3]heptan-6-yl)-1H-pyrazol-4-yl)pyrido[3,4-d]pyrimidin-2-amine] here?
Answer: 200 to 500 nM

Question: What about the IC50 [3] of the same molecule?
Answer: < 200 nM

Question: What about the IC50 [4] of the same molecule?
Answer: < 200 nM

Question: Which IC50 [1] does the source give for Cc1cc2cnc(NC3CCN(S(=O)(=O)C4(C)CC4)CC3)nc2c(C2CC(C)(O)C2)n1 (stereo not drawn) [Compound 63, 1-methyl-3-(6-methyl-2-((1-((1-methylcyclopropyl)sulfonyl)piperidin-4-yl)amino)pyrido[3,4-d]pyrimidin-8-yl)cyclobutan-1-ol] here?
Answer: 200 to 500 nM

Question: And the IC50 [2]?
Answer: > 2000 nM

Question: And the IC50 [4]?
Answer: > 2000 nM

Question: How did the IC50 [2] turn out when Cc1cc2cnc(NC3CCN(S(=O)(=O)c4cnn(C)c4)CC3)nc2c(N2CC(F)(F)C3(CNC3)C2)n1 [Compound 89, 8-(8,8-difluoro-2,6-diazaspiro[3.4]octan-6-yl)-6-methyl-N-(1-((1-methyl-1H-pyrazol-4-yl)sulfonyl)piperidin-4-yl)pyrido[3,4-d]pyrimidin-2-amine] was run?
Answer: < 200 nM

Question: What about the IC50 [3] of the same molecule?
Answer: < 200 nM

Question: And the IC50 [4]?
Answer: < 200 nM

Question: How did the IC50 [2] turn out when Cc1cc2cnc(NC3CCN(S(C)(=O)=O)CC3)nc2c(N2CC(O)(C(F)F)C2)n1 [Compound 91, 3-(difluoromethyl)-1-(6-methyl-2-((1-(methylsulfonyl)piperidin-4-yl)amino)pyrido[3,4-d]pyrimidin-8-yl)azetidin-3-ol] was run?
Answer: < 200 nM

Question: What about the IC50 [3] of the same molecule?
Answer: < 200 nM

Question: What about the IC50 [4] of the same molecule?
Answer: < 200 nM

Question: What does the source list for Cc1cc2cnc(NC3CCN(S(C)(=O)=O)CC3)nc2c(N2CC(F)(F)C3(CNC3)C2)n1 [Compound 92, 8-(8,8-difluoro-2,6-diazaspiro[3.4]octan-6-yl)-6-methyl-N-(1-(methylsulfonyl)piperidin-4-yl)pyrido[3,4-d]pyrimidin-2-amine]?
Answer: IC50 [2]: < 200 nM; IC50 [3]: < 200 nM; IC50 [4]: < 200 nM

Question: What does the source list for CCS(=O)(=O)N1CCC(Nc2ncc3cc(C)nc(N4CC(F)(F)C5(CNC5)C4)c3n2)CC1 [Compound 95, 8-(8,8-difluoro-2,6-diazaspiro[3.4]octan-6-yl)-N-(1-(ethylsulfonyl)piperidin-4-yl)-6-methylpyrido[3,4-d]pyrimidin-2-amine]?
Answer: IC50 [2]: < 200 nM; IC50 [3]: < 200 nM; IC50 [4]: < 200 nM

Question: With Cc1cc2cnc(NC3CCN(S(C)(=O)=O)CC3)nc2c(N2CC3(CNCC3F)C2)n1 (stereo not drawn) [Compound 98, 8-(8-fluoro-2,6-diazaspiro[3.4]octan-2-yl)-6-methyl-N-(1-(methylsulfonyl)piperidin-4-yl)pyrido[3,4-d]pyrimidin-2-amine] as the molecule, how does the IC50 [2] read?
Answer: 200 to 500 nM

Question: What about the IC50 [3] of the same molecule?
Answer: < 200 nM

Question: What about the IC50 [4] of the same molecule?
Answer: 200 to 500 nM

Question: Cc1cc2cnc(NC3CCN(S(=O)(=O)C4CC4)CC3)nc2c(N2CC(F)(F)C3(CN(C)C3)C2)n1 [Compound 102, N-(1-(cyclopropylsulfonyl)piperidin-4-yl)-8-(8,8-difluoro-2-methyl-2,6-diazaspiro[3.4]octan-6-yl)-6-methylpyrido[3,4-d]pyrimidin-2-amine] was tested. Which IC50 [2] did it give?
Answer: < 200 nM

Question: What about the IC50 [3] of the same molecule?
Answer: < 200 nM

Question: What about the IC50 [4] of the same molecule?
Answer: < 200 nM
